# Literature values, collected in patent US9730930B2, “Treatment for vitiligo” (Rigel Pharmaceuticals, Inc., priority 2012, dated 2017).
# System: other cytokine (IL-1β and TNFα) signaling
structure (smiles),measurement,value
"C#CCOc1ccc(Nc2nc(Nc3ccc(C)c(S(N)(=O)=O)c3)ncc2F)cc1 [Compound I, N2-(3-aminosulfonyl-4-methylphenyl)-5-fluoro-N4-[4-(prop-2-ynyloxy)phenyl]-2,4-pyrimidinediamine]",activity on other cytokine (IL-1β and TNFα) signaling,little or no activity
